In brackets after ≈: the same amount, converted by molar mass.
Columns and labels:
Assay type in all cases: functional
Escherichia coli [1] = assay: Antibacterial activity against Escherichia coli K-12 after overnight incubation by microbroth dilution method
Staphylococcus aureus [2] = assay: Antibacterial activity against methicillin-resistant Staphylococcus aureus after overnight incubation by microbroth dilution method
[3] = system: Mycobacterium tuberculosis; assay: Antitubercular activity against Mycobacterium tuberculosis H37Rv after 7 days by microbroth dilution method; conditions: 168 h
Acinetobacter = assay: Antibacterial activity against Acinetobacter after overnight incubation by microbroth dilution method
Enterococcus faecalis = assay: Antibacterial activity against Enterococcus faecalis after overnight incubation by microbroth dilution method
Bacillus anthracis = assay: Antibacterial activity against Bacillus anthracis after overnight incubation by microbroth dilution method
Staphylococcus aureus [4] = assay: Antibacterial activity against methicillin-susceptible Staphylococcus aureus after overnight incubation by microbroth dilution method
Escherichia coli [5] = assay: Antibacterial activity against Escherichia coli expressing TolC after overnight incubation by microbroth dilution method

Structure (SMILES)	MIC (Escherichia coli [1]) [µg/mL]	MIC (Staphylococcus aureus [2]) [µg/mL]	MIC [3] [µg/mL]	MIC (Acinetobacter) [µg/mL]	MIC (Enterococcus faecalis) [µg/mL]	MIC (Bacillus anthracis) [µg/mL]	MIC (Staphylococcus aureus [4]) [µg/mL]	MIC (Escherichia coli [5]) [µg/mL]
CC(=O)N(O)CCCP(=O)(OC(C)C)OC(C)C	> 200	> 200	400 (≈ 1420 µM)	> 200	> 200	> 200	> 200	> 200
O=CN(O)CCCP(=O)(O)O [FOSMIDOMYCIN]	12.5 (≈ 68.3 µM)	200 (≈ 1090 µM)	> 500	100 (≈ 546 µM)	> 200	0.78 (≈ 4.26 µM)	> 200	6.25 (≈ 34.1 µM)
CCOC(=O)OC(C)OP(=O)(CCCN(O)C(C)=O)OC(C)OC(=O)OCC (stereo not drawn)	> 200	> 200	400 (≈ 932 µM)	> 200	> 200	> 200	> 200	200 (≈ 466 µM)
CCOP(=O)(CCCN(O)C=O)OCC	> 200	> 200	400 (≈ 1670 µM)	> 200	> 200	> 200	> 200	> 200
CC(=O)N(O)CCCP(=O)([O-])O.[Na+]	200	50	> 500	50	> 200	50	> 200	12.5
CCCCCCOP(=O)(CCCN(O)C(C)=O)OCCCCCC	–	–	100 (≈ 274 µM)	–	–	–	–	–
CC(=O)N(O)CCCP(=O)(OC(C)OC(=O)c1ccccc1)OC(C)OC(=O)c1ccccc1 (stereo not drawn)	50 (≈ 101 µM)	–	100 (≈ 203 µM)	100 (≈ 203 µM)	> 200	50 (≈ 101 µM)	> 200	50 (≈ 101 µM)
CC(=O)N(O)CCCP(=O)(OC(C)OC(=O)OC(C)(C)C)OC(C)OC(=O)OC(C)(C)C (stereo not drawn)	> 200	50 (≈ 103 µM)	400 (≈ 824 µM)	> 200	> 200	200 (≈ 412 µM)	100 (≈ 206 µM)	> 200
CC(=O)N(O)CCCP(=O)(OCOC(=O)C(C)(C)C)OCOC(=O)C(C)(C)C	> 200	50 (≈ 118 µM)	50 (≈ 118 µM)	> 200	> 200	200 (≈ 470 µM)	100 (≈ 235 µM)	100 (≈ 235 µM)
CC(=O)N(O)CCCP(=O)(OCOC(=O)c1ccccc1)OCOC(=O)c1ccccc1	> 200	> 200	25 (≈ 53.7 µM)	200 (≈ 430 µM)	> 200	100 (≈ 215 µM)	> 200	50 (≈ 107 µM)
CCOP(=O)(CCCN(O)C(C)=O)OCC	> 200	200 (≈ 790 µM)	200 (≈ 790 µM)	> 200	> 200	200 (≈ 790 µM)	> 200	> 200
CC(=O)N(O)CCCP(=O)(OCC(=O)OC(C)(C)C)OCC(=O)OC(C)(C)C	> 200	25 (≈ 58.8 µM)	400 (≈ 940 µM)	> 200	> 200	> 200	100 (≈ 235 µM)	> 200

From ChEMBL document CHEMBL1921781, “Antibacterial and antitubercular activity of fosmidomycin, FR900098, and their lipophilic analogs” (2011)
